Blank lines part the entries; values can stand above or below the molecule they belong to. No end group written: not given here. Me2 = dimethyl-lysine (Lys side chain dimethylated)
Columns and labels:
[1] = test system: H3K36me3 peptide; assay: NMR titration, loss of H3K36me3 peptide binding of HRP3 PWWP mutants; conditions: versus wild-type
Experimental: (§1) All 2D ^1H-^15N HSQC NMR spectra were collected on the Bruker Avance III HD 600 MHz and 800 MHz spectrometers at 298 K. The NMR data were processed by NMRPipe ([39]) and analysed by KUJIRA ([40]) running with NMRview ([41]) softwares. Chemical shift perturbation experiments were carried out using ^15N-labelled HRP3 PWWP (residues 1–110) dissolved in buffer containing 20 mM PBS at pH 6.9, 20 mM NaCl and 2 mM DTT. A series of 2D ^1H-^15N HSQC spectra were recorded at HRP3 PWWP:H3K36me3/2/1/0 (residues 29–41) molar ratios of 1:0, 1:0.5, 1:1.5, 1:4, 1:6, 1:10, 1:15 and 1:20, respectively. The combined chemical shift perturbation was calculated using the following equation: Δδ = [(Δδ^1H)^2 + (Δδ^15N/5)^2]^1/2. Dissociation constants were calculated by fitting the data to a single-site ligand-binding model (SigmaPlot).

[2] = test system: HRP3 PWWP; assay: DNA geometry analysis of the PWWP/DNA complex structures; design: species or system human
Experimental: DNA geometry was analysed with the 3DNA ([42]) and Curves+ ([43]) programs. Electrostatic potentials were calculated using the DelPhi program ([44]). The minor groove width was measured according to the method described ([45]). In detail, the distances between the ith (i indicates the number of the base from one chain) phosphate atom from one chain and the (i + 4)th atom from the paired chain were used to describe the minor groove width at the ith base. Electrostatic potentials were calculated at the midpoints between the above phosphate atom pairs used to calculate the minor groove widths.

[3] = test system: chromatin of HepG2 cells; assay: Subcellular fractionation, chromatin binding of GFP-HRP3 variants in HepG2 cells; type: cell-based, human; conditions: cellular fractionation, western blot anti-GFP
Experimental: (§2) HepG2 (ATCC HB-8065) and HEK293T human embryonic kidney cells (ATCC #CRL-11268) were cultured in Dulbecco’s modified Eagle’s medium supplemented with 10% FBS. Stable overexpression of wild-type or mutant HRP3 in HepG2 cells was performed using FUGW lentiviral constructs expressing wild-type or mutant HRP3. Lentiviral vector infections ([47]) and plasmid transfections ([48]) were performed as previously described. Overexpression efficiency was determined by western blot.
Cellular fractionations were performed using a Subcellular Fractionation Kit (Thermo Scientific, cat. 78840) according to the manufacturer’s protocol. A total of 1 × 10^6 cells were used for each cell line’s fractionation. Soluble nuclear contents and chromatin-bound nuclear contents were analysed by western blotting using anti-GFP (gta-20, Chromo-Tek) and anti-histone H3 (4499S, CST) antibodies.

[4] = test system: chromatin of HepG2 cells; assay: ChIP-Seq of GFP-HRP3 variants in HepG2 cells; type: cell-based, human; conditions: ChIP-Seq with GFP antibody, HepG2, two biological replicates combined
Experimental: as §2
For chromatin immunoprecipitation, HepG2 cells were cross-linked with 1% formaldehyde at 37°C for 10 min and quenched with 0.125 M glycine for 5 min at room temperature. ChIP was performed using a ChIP assay kit (Millipore) according to the manufacturer’s protocol. Antibodies used for ChIP were GFP (gta-20, Chromo-Tek) and H3K36me3 (ab9050, abcam).
ChIP-Seq data were aligned to human genome hg19 using Bowtie 1.0 allowing one mismatch. Two biological replicates were performed and combined for the analysis. Analysis was performed using the Galaxy ([49]) and Cistrome ([50]) Platform and via custom R scripts for Bioconductor ([51]). Peak calling was performed using MACS2. Promoter definitions were downloaded from the UCSC browser ([52]). DNase I hypersensitivity and MNase-Seq data from ENCODE (GSM816662, GSM920557) ([53]) were used.

[5] = target: T1, HRP3 PWWP WT (Homo sapiens, UniProt Q9Y3E1); assay: NMR titration of H3K36 peptides with wild-type HRP3 PWWP; type: binding; conditions: 15N-labelled HRP3 PWWP (1–110) WT, H3 residues 29–41, 20 mM PBS pH 6.9, 20 mM NaCl, 2 mM DTT, 298 K
T1 construct: using ^15N-labelled HRP3 PWWP (residues 1–110) dissolved in buffer; 6xHis-SUMO (cleaved yes); made in house; host or cells: Escherichia coli Rosetta (DE3)
Experimental: as §1

[6] = target: HRP3 PWWP (1-110) WT (UniProt Q9Y3E1 1-110); assay: MST; MST: 50 mM KCl, 10 mM Na cacodylate pH 6.5, 2 mM DTT, 200 nM FAM-dsDNA; ITC: 10 mM PBS pH 7.0, 50 mM NaCl, 2 mM b-ME, 20 C; nucleosome EMSA: 20 mM Tris pH 7.5; conditions: protein: recombinant, tags: none (His-SUMO removed), label: 5'-FAM (MST), blunt
[7] = target: HRP3 PWWP K18A/N76A/R78A (KNR-A) (UniProt Q9Y3E1 1-110, K18A;N76A;R78A); assay: as above; conditions: protein: recombinant; tags: none (His-SUMO removed); label: 5'-FAM (MST); blunt; self-complementary
[8] = target: T2, HRP3 PWWP domain (residues 1–110) (human, UniProt Q9Y3E1 1-110); assay: NMR titration; 2D 1H-15N HSQC chemical shift perturbation of 15N-labelled HRP3 PWWP (1–110); H3 peptide (29–41) added to molar ratios 1:0 to 1:20; 298 K; 20 mM PBS pH 6.9, 20 mM NaCl, 2 mM DTT; single-site ligand-binding fit; conditions: both partners purified
T2 construct: HDGF-related protein 3 (HRP3, HDGFL3), human, residues 1-110 holding the PWWP domain; His-SUMO tag removed by ULP1 protease; also called HRP3 PWWP (1–110); HRP3(1-110); source: E. coli Rosetta (DE3), purified (nickel column, gel filtration), 15N-labelled
T2 sequence (Q9Y3E1 1-110): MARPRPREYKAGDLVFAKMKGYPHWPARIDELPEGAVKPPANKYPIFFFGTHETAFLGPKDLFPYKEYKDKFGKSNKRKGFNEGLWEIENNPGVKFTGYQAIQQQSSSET

Chain of HRP3 PWWP (1-110) WT (Q9Y3E1 1-110): as above
T1 sequence (Q9Y3E1 1-110): as above
Chain of HRP3 PWWP K18A/N76A/R78A (KNR-A) (Q9Y3E1 1-110 K18A/N76A/R78A): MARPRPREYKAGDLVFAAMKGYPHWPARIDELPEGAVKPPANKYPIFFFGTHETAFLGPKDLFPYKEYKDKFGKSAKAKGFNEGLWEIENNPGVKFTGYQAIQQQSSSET

Molecule: 5′-GCGCGCGCGC-3′ [10-mer-GC]
average helical twist ([2]; 3DNA): 35.3 °
average propeller twist ([2]; 3DNA): −7.3 °
bending angle towards the minor groove per 6 bps ([2]; Curve+ software): 3.4 °
narrowing of minor groove upon PWWP binding ([2]; crystal structure of complex): ~2.7 Å
width of the minor groove, PWWP-binding region ([2]; crystal structure of complex): 10.5 Å
width of the minor groove, PWWP-free region ([2]; crystal structure of complex): 13.2 Å

Molecule: KYNR-A: HRP3 K18A/Y22A/N76A/R78A mutant, GFP fusion
chromatin binding [3]: dramatically reduced the chromatin binding
chromatin binding / recruitment by ChIP-Seq [4]: strong reduction in chromatin binding

Molecule: Y22A: HRP3 PWWP aromatic cage mutant
chromatin binding [3]: but not the H3K36me3 binding amino acids (Y22A) alone, dramatically reduced the chromatin binding
chromatin binding / recruitment by ChIP-Seq [4]: weaker consequences
fold loss of binding affinity for the H3K36me3 peptide [1]: 15 fold

Molecule: KNR-A: HRP3 K18A/N76A/R78A mutant, GFP fusion
chromatin binding [3]: dramatically reduced the chromatin binding
chromatin binding / recruitment by ChIP-Seq [4]: strong reduction in chromatin binding

Molecule: K18A: DNA binding mutant of human HRP3, GFP fusion
chromatin binding [3]: dramatically reduced the chromatin binding

B1: 16-mer-GC (dsDNA)
DNA 1: GCGCGCGCGCGCGCGC
DNA 2: GCGCGCGCGCGCGCGC
Kd ([6]; self-complementary): 2800 nM
binding signal [7]: 5.7 fold loss vs WT

B3: 16-mer-random (dsDNA)
DNA 1: CAGGCTGGTCTTGAAC
DNA 2: GTTCAAGACCAGCCTG
Kd [6]: 3200 nM

Continued, values first:

fold loss of binding affinity for the H3K36me3 peptide [1]: 6.7 fold
Molecule: F48A: HRP3 PWWP aromatic cage mutant

Kd [5]: 5.1 ± 1.9 mM
Molecule: CNCCCC[C@H](NC(=O)[C@@H](NC(=O)CNC(=O)CNC(=O)[C@@H](NC(=O)[C@H](C)NC(=O)[C@@H]1CCCN1C(=O)[C@H](C)N)[C@@H](C)O)C(C)C)C(=O)N[C@@H](CCCCN)C(=O)N1CCC[C@H]1C(=O)N[C@@H](Cc1c[nH]cn1)C(=O)N[C@@H](CCCNC(=N)N)C(=O)N[C@@H](Cc1ccc(O)cc1)C(=O)O [H3K36me1]

fold loss of binding affinity for the H3K36me3 peptide [1]: 5.7 fold
Molecule: E53A: HRP3 PWWP mutant E53A

Kd [5]: 4.7 ± 1.2 mM
Molecule: CC(C)[C@H](NC(=O)CNC(=O)CNC(=O)[C@@H](NC(=O)[C@H](C)NC(=O)[C@@H]1CCCN1C(=O)[C@H](C)N)[C@@H](C)O)C(=O)N[C@@H](CCCCN)C(=O)N[C@@H](CCCCN)C(=O)N1CCC[C@H]1C(=O)N[C@@H](Cc1c[nH]cn1)C(=O)N[C@@H](CCCNC(=N)N)C(=O)N[C@@H](Cc1ccc(O)cc1)C(=O)O [H3K36me0]

Kd [8]: 2.1 mM
B2: H3K36me2 histone peptide (H3 residues 29–41) (peptide, UniProt P68431 30-42, looked up)
peptide: APATGGVK(Me2)KPHRY
notes: histone H3, residues 29-41; also called H3K36me2-containing peptide

— publication PMC6547440, “The HRP3 PWWP domain recognizes the minor groove of double-stranded DNA and recruits HRP3 to chromatin” (Nucleic Acids Research, 2019)
